The values that follow come from patent US8754115B2, “Fungicidal pyrazoles” (E I du Pont de Nemours and Company, priority 2010, dated 2014).

Format in all cases: in vivo
For one assay, the system named is Septoria nodorum. Briefly: Test C: preventive spray on wheat seedlings, visual disease rating (Septoria glume blotch). The following applies: no asterisk: standard test suspension, not 40 ppm. A digest of the protocol:
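Wheat seedlings were sprayed to run-off with 200 ppm suspension (40 ppm where marked; 200 ppm ≈ 800 g/ha) in acetone/water with 250 ppm Trem 014, then inoculated next day with Septoria nodorum spores. Incubation was 48 h saturated at 24 °C, then 6 days at 20 °C; visual rating 0–100% disease control versus controls.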

The subject of the next assay is Alternaria solani. The assay can be described thus: Test B: preventive spray on tomato seedlings, visual disease rating (tomato early blight). A digest of the protocol: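 Compounds were suspended at 200 ppm (asterisked values at 40 ppm) in acetone/water with surfactant and sprayed to run-off on tomato seedlings, 200 ppm being equivalent to 800 g/ha. A. solani spores were inoculated the next day, with 48 h at 27 °C in saturated air, then 5 days at 20 °C. Disease control was rated visually, 0–100% relative to controls.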

The next assay has as its system Septoria tritici. The assay can be described thus: Test D: preventive spray on wheat seedlings, visual disease rating (wheat leaf blotch). A digest of the protocol: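 Wheat seedlings were sprayed to run-off with a 200 ppm suspension (equal to 800 g/ha), or 40 ppm where marked with an asterisk, and inoculated with Septoria tritici spores the next day. Plants were kept at 24 °C in saturated air for 48 h, then at 20 °C for 19 days. Disease control was rated visually from 0 to 100 relative to controls.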

In assay [1] the test system is Blumeria graminis f. sp. tritici. Briefly: Test F: preventive spray on wheat seedlings, visual disease rating (wheat powdery mildew). The following applies: no asterisk: standard test suspension, not 40 ppm. A digest of the protocol: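 Compound in acetone/water (50/50) with 250 ppm surfactant, sprayed to run-off on wheat seedlings at 200 ppm (≈800 g/ha) or, where marked, 40 ppm. Seedlings dusted with spores the next day, kept 8 days at 20° C., then rated visually as % disease control versus untreated plants.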

Assay [2] concerns Puccinia recondite f. sp. tritici. Briefly: Test E2: preventive spray on wheat seedlings, visual disease rating (wheat leaf rust). The note with it: no asterisk: standard test suspension, not 40 ppm. A digest of the protocol: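 Test suspension (acetone 3% of volume, acetone/water 50/50, 250 ppm Trem 014), 200 ppm unless starred (40 ppm), sprayed to run-off on wheat seedlings; inoculated next day with P. recondita spores. 24 h saturated atmosphere at 20 °C, then 7 days at 20 °C; visual rating, 100 = full control vs untreated.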

Assay [3] shares this test system. Briefly: Test E1: curative spray on wheat seedlings after inoculation, visual disease rating (wheat leaf rust). A digest of the protocol: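 Seedlings inoculated with rust spores, held 24 h in saturated atmosphere at 20 °C, then 2 days at 20 °C before curative spray to run-off with test suspension (200 ppm ≈ 800 g/ha, or 40 ppm where marked) in acetone/water with surfactant. Visual disease control rating (0–100) after 6 further days at 20 °C.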

A further assay has as its system Botrytis cinerea. Briefly: Test A: preventive spray on tomato seedlings, visual disease rating (tomato Botrytis). The following applies: no asterisk: standard test suspension, not 40 ppm, 100 = 100% disease control, 0 = none. A digest of the protocol: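 Tomato seedlings sprayed to run-off with 200 ppm suspension (800 g/ha; asterisk marks 40 ppm), inoculated next day with Botrytis cinerea spores, held 48 h saturated at 20 °C then 3 days at 24 °C. Visual rating: 100 = full disease control, 0 = none, relative to controls.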

Where [4] appears, read: no asterisk: standard test suspension, not 40 ppm.
The mark [5] stands for this setting: asterisk: 40 ppm test suspension.

Marks after values point to notes of the source that are not given here.

As for `Cc1nn(C)c(-c2ccccc2Br)c1C(=O)c1ccc(F)cc1Cl` [compound 78], the “Test C rating (% disease control)” value in the assay with Septoria nodorum is listed as 40%. Besides, the “Test B rating (% disease control)” value in the assay with Alternaria solani (setting [4]) is 31%. Further, in the assay on Septoria tritici (setting [4]), the “Test D rating (% disease control)” value is reported as 0%. Besides, the “Test F rating (% disease control)” value in assay [1] was found to be 99%. Moreover, the “Test E2 rating (% disease control)” value in assay [2] worked out at 79%. In addition, the “Test E1 rating (% disease control)” value in assay [3] (setting [4]) came to 0%. In the assay with Botrytis cinerea, the “Test A rating (% disease control)” value is 0%.

`Cc1nn(C)c(-c2c(F)cccc2Cl)c1C(=O)c1ccc(Cl)cc1Cl` [compound 27]: the “Test C rating (% disease control)” value in the assay with Septoria nodorum worked out at 0%. The “Test B rating (% disease control)” value in the assay on Alternaria solani (setting [4]) turned out to be 0%. Besides, the “Test D rating (% disease control)” value with Septoria tritici (setting [4]) came to 0%. Further, in assay [1], the “Test F rating (% disease control)” value worked out at 81%. Moreover, the “Test E2 rating (% disease control)” value in assay [2] was determined as 0%. In assay [3] (setting [4]), the “Test E1 rating (% disease control)” value amounted to 0%. Also, the “Test A rating (% disease control)” value with Botrytis cinerea stood at 0%.

On to `Cc1nn(C)c(-c2ccccc2Br)c1C(O)c1ccc(F)cc1Cl` (single isomer, unassigned) [compound 79], for which the “Test C rating (% disease control)” value in the assay on Septoria nodorum is given as 0%. For the same compound, in the assay on Alternaria solani (setting [4]), the “Test B rating (% disease control)” value was 0%. The “Test D rating (% disease control)” value in the assay with Septoria tritici (setting [4]) turned out to be 100%. The “Test F rating (% disease control)” value in assay [1] is 99%. For the same compound, the “Test E2 rating (% disease control)” value in assay [2] came out at 100%. For the same compound, the “Test E1 rating (% disease control)” value in assay [3] (setting [4]) was 53%. Also, in the assay on Botrytis cinerea, the “Test A rating (% disease control)” value worked out at 98%.

On to `Cc1nn(C)c(-c2c(F)cccc2F)c1[S+]([O-])c1ccc(Cl)cc1` (centres unmarked) [compound 63], for which, in the assay on Septoria nodorum, the “Test C rating (% disease control)” value stood at 0%. For the same compound, the “Test B rating (% disease control)” value with Alternaria solani (setting [4]) is 0%. Besides, in the assay on Septoria tritici (setting [4]), the “Test D rating (% disease control)” value amounted to 0%. Moreover, in assay [1], the “Test F rating (% disease control)” value was found to be 76%. Besides, the “Test E2 rating (% disease control)” value in assay [2] was found to be 28%. In assay [3] (setting [4]), the “Test E1 rating (% disease control)” value turned out to be 0%. The “Test A rating (% disease control)” value with Botrytis cinerea is 0%.

`Cc1nn(C)c(-c2c(F)cccc2F)c1C(O)c1ccc(F)cc1Cl` (single isomer, unassigned) [compound 87]: the “Test C rating (% disease control)” value in the assay with Septoria nodorum is on record as 100%. Besides, in the assay with Alternaria solani (setting [5]), the “Test B rating (% disease control)” value is recorded as 0* %. In addition, the “Test D rating (% disease control)” value in the assay on Septoria tritici (setting [5]) was 99* %. Further, the “Test F rating (% disease control)” value in assay [1] is recorded as 99%. In addition, the “Test E2 rating (% disease control)” value in assay [2] is 99%. Moreover, in assay [3] (setting [5]), the “Test E1 rating (% disease control)” value is listed as 0* %. The “Test A rating (% disease control)” value with Botrytis cinerea is 100%.

As to `Cc1nn(C)c(-c2ccc(F)cc2Cl)c1C(O)c1ccc(F)cc1Br` (centres unmarked) [compound 23], the “Test C rating (% disease control)” value in the assay on Septoria nodorum stood at 87%. Moreover, the “Test B rating (% disease control)” value in the assay on Alternaria solani (setting [4]) is reported as 67%. In addition, the “Test D rating (% disease control)” value in the assay on Septoria tritici (setting [4]) is listed as 100%. In addition, in assay [1], the “Test F rating (% disease control)” value is reported as 84%. In addition, the “Test E2 rating (% disease control)” value in assay [2] is reported as 100%. Besides, in assay [3] (setting [4]), the “Test E1 rating (% disease control)” value came to 98%. Moreover, the “Test A rating (% disease control)” value in the assay with Botrytis cinerea is listed as 100%.

In the case of `Cc1nn(C)c(-c2c(F)cccc2Cl)c1C(O)c1ccc(F)cc1F` (centres unmarked) [compound 33], the “Test C rating (% disease control)” value in the assay on Septoria nodorum amounted to 100%. The “Test B rating (% disease control)” value with Alternaria solani (setting [4]) was 100%. Also, the “Test D rating (% disease control)” value in the assay with Septoria tritici (setting [4]) stood at 100%. For the same compound, in assay [1], the “Test F rating (% disease control)” value is reported as 100%. Further, the “Test E2 rating (% disease control)” value in assay [2] was found to be 100%. The “Test E1 rating (% disease control)” value in assay [3] (setting [4]) was found to be 99%. For the same compound, in the assay with Botrytis cinerea, the “Test A rating (% disease control)” value worked out at 100%.

Regarding `Cc1nn(C)c(-c2c(F)cccc2Cl)c1C(=O)c1ccc(F)cc1F` [compound 28], the “Test C rating (% disease control)” value in the assay on Septoria nodorum is listed as 0%. The “Test B rating (% disease control)” value in the assay on Alternaria solani (setting [4]) is reported as 0%. Further, the “Test D rating (% disease control)” value in the assay with Septoria tritici (setting [4]) stood at 0%. Also, the “Test F rating (% disease control)” value in assay [1] amounted to 79%. Besides, the “Test E2 rating (% disease control)” value in assay [2] was 8%. Further, in assay [3] (setting [4]), the “Test E1 rating (% disease control)” value is given as 0%. In addition, in the assay with Botrytis cinerea, the “Test A rating (% disease control)” value turned out to be 56%.
